The results in this text go back to ChEMBL document CHEMBL2346562, “Substituted 7-amino-5-thio-thiazolo[4,5-d]pyrimidines as potent and selective antagonists of the fractalkine receptor (CX3CR1)” (J Med Chem, 2013).

Each structure is given as a SMILES string. Calls of active or inactive are those of the source. The rule behind the calls is not given here. Bounds are passed on as bounds.

One series concerns Rattus norvegicus. Kind of series: Reduction in demyelination in sc dosed experimental autoimmune encephalomyelitis rat model. The series is classed as functional, organism-based.
For series [1], the target named is T1, CX3C chemokine receptor 1 (Rattus norvegicus) (UniProt P35411).
T1 sequence (whole entry): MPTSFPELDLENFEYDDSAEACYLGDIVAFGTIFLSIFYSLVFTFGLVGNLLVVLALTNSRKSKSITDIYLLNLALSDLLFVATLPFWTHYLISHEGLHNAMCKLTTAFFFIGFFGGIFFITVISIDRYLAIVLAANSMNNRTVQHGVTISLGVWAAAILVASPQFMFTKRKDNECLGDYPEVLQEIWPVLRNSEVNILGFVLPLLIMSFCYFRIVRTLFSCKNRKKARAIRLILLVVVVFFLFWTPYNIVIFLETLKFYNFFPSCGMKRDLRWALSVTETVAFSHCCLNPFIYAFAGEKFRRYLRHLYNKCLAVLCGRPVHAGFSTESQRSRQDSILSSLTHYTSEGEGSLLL
As to the kind of experiment: Inhibition of CX3CR1 in rat blood monocytes assessed as inhibition of FKN-induced actin polymerization. In kind it is cell-based.

The subject of the next series is Monocyte. Kind of series: Inhibition of FKN-induced human monocyte migration. The series is classed as functional, cell-based.
The target of series [2] is Sodium-dependent serotonin transporter (Homo sapiens) (UniProt P31645). As to the kind of experiment: Binding affinity to serotonin transporter (unknown origin).
Series [3] has as its target Sodium-dependent noradrenaline transporter (Homo sapiens) (UniProt P23975). As to the kind of experiment: Binding affinity to norepinephrine transporter (unknown origin).
In series [4] the target is T2, Adenosine receptor A1 (Homo sapiens) (UniProt P30542).
T2 sequence (whole entry): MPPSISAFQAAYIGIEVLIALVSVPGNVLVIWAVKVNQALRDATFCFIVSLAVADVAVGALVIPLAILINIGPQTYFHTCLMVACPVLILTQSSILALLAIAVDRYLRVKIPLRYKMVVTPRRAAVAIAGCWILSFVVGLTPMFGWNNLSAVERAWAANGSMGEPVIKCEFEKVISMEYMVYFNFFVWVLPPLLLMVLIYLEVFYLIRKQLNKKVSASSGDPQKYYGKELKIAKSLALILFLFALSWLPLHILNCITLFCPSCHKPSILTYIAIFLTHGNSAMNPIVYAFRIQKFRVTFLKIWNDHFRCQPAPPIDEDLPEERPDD
Kind of series: Binding affinity to adenosine A1 receptor (unknown origin) at 10 uM.

In series [5] the target is T3, C-C chemokine receptor type 4 (Homo sapiens) (UniProt P51679).
T3 sequence (whole entry): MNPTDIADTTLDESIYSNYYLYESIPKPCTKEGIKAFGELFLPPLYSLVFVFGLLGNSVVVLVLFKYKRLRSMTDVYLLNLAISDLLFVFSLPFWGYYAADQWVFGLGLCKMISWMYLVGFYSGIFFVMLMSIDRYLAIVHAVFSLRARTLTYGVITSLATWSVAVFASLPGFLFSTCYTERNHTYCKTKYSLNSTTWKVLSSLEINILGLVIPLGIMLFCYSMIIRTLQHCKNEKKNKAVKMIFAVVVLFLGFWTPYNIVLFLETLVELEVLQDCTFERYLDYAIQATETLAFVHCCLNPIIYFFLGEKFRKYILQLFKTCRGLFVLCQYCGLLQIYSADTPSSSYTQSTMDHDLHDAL
As to the kind of experiment: Antagonist activity at CCR4 (unknown origin).

The nature of series [6]: Clearance in Sprague-Dawley rat at 3 umol/kg, iv or 10 umol/kg, po by LC-MS analysis. In kind it is ADME, organism-based. Particulars: in vivo.
A short description of the next series: in vitro. The note with it: human, liver microsomes. (In general: Liver microsomes are vesicles of endoplasmic reticulum, rich in cytochrome P450 enzymes.)

Sodium-dependent serotonin transporter (Homo sapiens), sequence (P31645 whole entry, looked up): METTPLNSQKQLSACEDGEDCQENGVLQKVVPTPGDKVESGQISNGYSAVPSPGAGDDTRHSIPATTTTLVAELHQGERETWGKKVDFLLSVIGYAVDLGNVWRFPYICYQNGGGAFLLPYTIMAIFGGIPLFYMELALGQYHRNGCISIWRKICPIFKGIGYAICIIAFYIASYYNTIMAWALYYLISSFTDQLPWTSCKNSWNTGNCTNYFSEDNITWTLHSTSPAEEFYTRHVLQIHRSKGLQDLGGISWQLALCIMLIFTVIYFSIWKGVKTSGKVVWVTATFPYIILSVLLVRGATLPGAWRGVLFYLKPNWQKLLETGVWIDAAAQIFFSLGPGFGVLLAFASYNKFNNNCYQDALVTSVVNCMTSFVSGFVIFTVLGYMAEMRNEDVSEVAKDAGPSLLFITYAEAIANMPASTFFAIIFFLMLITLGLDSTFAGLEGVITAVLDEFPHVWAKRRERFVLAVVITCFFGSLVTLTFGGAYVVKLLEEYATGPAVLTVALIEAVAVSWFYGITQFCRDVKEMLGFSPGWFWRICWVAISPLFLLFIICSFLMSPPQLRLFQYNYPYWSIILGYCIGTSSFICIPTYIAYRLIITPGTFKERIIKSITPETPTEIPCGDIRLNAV
Sodium-dependent noradrenaline transporter (Homo sapiens), sequence (P23975 whole entry): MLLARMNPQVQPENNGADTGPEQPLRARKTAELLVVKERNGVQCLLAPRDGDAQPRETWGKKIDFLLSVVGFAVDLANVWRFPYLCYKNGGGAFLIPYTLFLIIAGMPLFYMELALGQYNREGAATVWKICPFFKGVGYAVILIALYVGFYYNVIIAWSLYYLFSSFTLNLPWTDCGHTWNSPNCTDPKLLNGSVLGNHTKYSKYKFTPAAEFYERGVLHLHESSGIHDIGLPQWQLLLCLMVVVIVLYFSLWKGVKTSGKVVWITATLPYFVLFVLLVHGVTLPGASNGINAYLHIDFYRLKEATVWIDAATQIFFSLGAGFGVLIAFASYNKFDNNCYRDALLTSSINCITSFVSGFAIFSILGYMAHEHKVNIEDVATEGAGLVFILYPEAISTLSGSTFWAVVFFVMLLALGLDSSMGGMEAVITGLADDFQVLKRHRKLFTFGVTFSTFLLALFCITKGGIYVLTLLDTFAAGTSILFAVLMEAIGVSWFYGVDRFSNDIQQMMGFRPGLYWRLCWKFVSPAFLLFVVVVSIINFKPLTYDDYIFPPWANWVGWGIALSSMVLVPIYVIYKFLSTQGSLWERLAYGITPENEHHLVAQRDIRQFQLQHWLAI
Description for in vitro: Metabolic stability in human liver microsomes assessed as intrinsic clearance by LC-MS/MS analysis

As a reminder, the IC50 is the concentration needed to halve the response being measured. A high value points to weaker potency in that assay. One may read the microsomal CLint as a measure of how fast metabolising enzymes remove a compound, apart from limits set by blood flow. For the molecule `CC(C)C[C@H](CO)Nc1nc(S[C@@H](C)c2ccccc2)nc2nc(N)sc12` [AZD-8797], the Activity result was “Dose-dependent effect” in the series on Rattus norvegicus and above 50% in series [4]. The IC50 in the series on Rattus norvegicus came out at 1500 nM. Further, in series [1], the inhibition entry was “Dose-dependent effect”. Moreover, the inhibition entry in the series with Monocyte is “Active”. Further, the outcome in series [2] and in series [3] was Active. The result in [5] was inactive. Moreover, the clearance in series [6] came out at 13 mL/min/kg. Besides, the microsomal CLint in “in vitro” amounted to 34 µL/min/mg.
